Source: patent US11470846B2, “Herbicidal pyridino-/pyrimidino-thiazoles” (SYNGENTA PARTICIPATIONS AG, priority 2014, dated 2022)

How the values were obtained:
Type in all cases: in vivo
[1] = system: Abutilon theophrasti (ABUTH); assay: Pre-emergence herbicidal activity; details: pre-emergence application, 1000 g/Ha, evaluated after 13 days, scale 0-5
Method in brief: (§1)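 Seeds sown in standard soil, sprayed one day after sowing with active ingredient formulated in acetone/water (50:50) with 0.5% Tween 20. Glasshouse at 24/16 °C day/night, 14 h light, 65% humidity, watered twice daily; damage scored after 13 days on a 0–5 scale (5 = total damage).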

[2] = system: Amaranthus retroflexus (AMARE); assay: Pre-emergence herbicidal activity; details: pre-emergence application, 1000 g/Ha, evaluated after 13 days, scale 0-5
Method in brief: as §1

[3] = system: Echinochloa crus-galli (ECHCG); assay: Pre-emergence herbicidal activity; details: pre-emergence application, 1000 g/Ha, evaluated after 13 days, scale 0-5
Method in brief: as §1

Lolium perenne (LOLPE) [4] = assay: Pre-emergence herbicidal activity; details: pre-emergence application, 1000 g/Ha, evaluated after 13 days, scale 0-5
Method in brief: as §1

Setaria faberi (SETFA) [5] = assay: Pre-emergence herbicidal activity; details: pre-emergence application, 1000 g/Ha, evaluated after 13 days, scale 0-5
Method in brief: as §1

Zea Mays (ZEAMX) [6] = assay: Pre-emergence herbicidal activity; details: pre-emergence application, 1000 g/Ha, evaluated after 13 days, scale 0-5
Method in brief: as §1

[7] = system: Abutilon theophrasti (ABUTH); assay: Post-emergence herbicidal activity; details: post-emergence application, 1000 g/Ha, evaluated after 13 days, scale 0-5
Method in brief: (§2)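 Young plants, 8 days old, receive a foliar spray of compound in 50:50 acetone/water containing 0.5% Tween 20. Growth continues in a glasshouse with twice-daily watering, and injury is rated 13 days later from 0 to 5.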

[8] = system: Amaranthus retroflexus (AMARE); assay: Post-emergence herbicidal activity; details: post-emergence application, 1000 g/Ha, evaluated after 13 days, scale 0-5
Method in brief: as §2

[9] = system: Echinochloa crus-galli (ECHCG); assay: Post-emergence herbicidal activity; details: post-emergence application, 1000 g/Ha, evaluated after 13 days, scale 0-5
Method in brief: as §2

Lolium perenne (LOLPE) [10] = assay: Post-emergence herbicidal activity; details: post-emergence application, 1000 g/Ha, evaluated after 13 days, scale 0-5
Method in brief: as §2

Setaria faberi (SETFA) [11] = assay: Post-emergence herbicidal activity; details: post-emergence application, 1000 g/Ha, evaluated after 13 days, scale 0-5
Method in brief: as §2

Zea Mays (ZEAMX) [12] = assay: Post-emergence herbicidal activity; details: post-emergence application, 1000 g/Ha, evaluated after 13 days, scale 0-5
Method in brief: as §2

[13] = system: Alopecurus myosuroides (ALOMY); assay: Pre-emergence herbicidal activity; details: pre-emergence application, 1000 g/Ha, evaluated after 13 days, scale 0-5
Method in brief: as §1

Avena fatua (AVEFA) [14] = assay: Pre-emergence herbicidal activity; details: pre-emergence application, 1000 g/Ha, evaluated after 13 days, scale 0-5
Method in brief: as §1

Oryza sativa (ORYSA) [15] = assay: Pre-emergence herbicidal activity; details: pre-emergence application, 1000 g/Ha, evaluated after 13 days, scale 0-5
Method in brief: as §1

[16] = system: Triticum aestivium (TRZAW); assay: Pre-emergence herbicidal activity; details: pre-emergence application, 1000 g/Ha, evaluated after 13 days, scale 0-5
Method in brief: as §1

[17] = system: Alopecurus myosuroides (ALOMY); assay: Post-emergence herbicidal activity; details: post-emergence application, 1000 g/Ha, evaluated after 13 days, scale 0-5
Method in brief: as §2

Avena fatua (AVEFA) [18] = assay: Post-emergence herbicidal activity; details: post-emergence application, 1000 g/Ha, evaluated after 13 days, scale 0-5
Method in brief: as §2

Oryza sativa (ORYSA) [19] = assay: Post-emergence herbicidal activity; details: post-emergence application, 1000 g/Ha, evaluated after 13 days, scale 0-5
Method in brief: as §2

[20] = system: Triticum aestivium (TRZAW); assay: Post-emergence herbicidal activity; details: post-emergence application, 1000 g/Ha, evaluated after 13 days, scale 0-5
Method in brief: as §2

| SMILES | Control of weed species, ABUTH (damage score) [1] | Control of weed species, AMARE (damage score) [2] | Control of weed species, ECHCG (damage score) ([3]; Table 6) | Control of weed species, LOLPE (damage score) (Lolium perenne (LOLPE) [4]; Table 6) | Control of weed species, SETFA (damage score) (Setaria faberi (SETFA) [5]) | Control of weed species, ZEAMX (damage score) (Zea Mays (ZEAMX) [6]) | Control of weed species, ABUTH (damage score) [7] | Control of weed species, AMARE (damage score) [8] | Control of weed species, ECHCG (damage score) ([9]; Table 8) | Control of weed species, LOLPE (damage score) (Lolium perenne (LOLPE) [10]; Table 8) | Control of weed species, SETFA (damage score) (Setaria faberi (SETFA) [11]) | Control of weed species, ZEAMX (damage score) (Zea Mays (ZEAMX) [12]) | other results |
| --- | --- | --- | --- | --- | --- | --- | --- | --- | --- | --- | --- | --- | --- |
| C#CC(C)OC(=O)N(C)c1sc(-c2cccnc2)nc1C (stereo not drawn) [Compound B2, 1-methylprop-2-ynyl N-methyl-N-[4-methyl-2-(3-pyridyl)thiazol-5-yl]carbamate] | 3 | 3 | 1 | 3 | 5 | 5 | 2 | 2 | 2 | 4 | 5 | 4 | – |
| C#CCOC(=O)N(C)c1sc(-c2cccnc2)nc1C [Compound B1, prop-2-ynyl N-methyl-N-[4-methyl-2-(3-pyridyl)thiazol-5-yl]carbamate] | 2 | 2 | 2 | 3 | 5 | 5 | 1 | 1 | 4 | 3 | 5 | 5 | – |
| C#CC(C)(C)OC(=O)N(C)c1sc(-c2cccnc2)nc1C [Compound B3, 1,1-dimethylprop-2-ynyl N-methyl-N-[4-methyl-2-(3-pyridyl)thiazol-5-yl]carbamate] | 4 | 3 | 3 | 3 | 4 | 5 | 1 | 2 | 4 | 4 | 5 | 5 | – |
| Cc1nc(-c2cncc(OC(F)F)c2)sc1N(C)C(=O)OC(C)(C)C [Compound A16, tert-butyl N-[2-[5-(difluoromethoxy)-3-pyridyl]-4-methyl-thiazol-5-yl]-N-methyl-carbamate] | – | – | – | – | – | – | – | – | – | – | – | – | Control of weed species, ALOMY (damage score) [13]: 0; Control of weed species, AVEFA (damage score) (Avena fatua (AVEFA) [14]): 3; Control of weed species, ECHCG (damage score) ([3]; Table 5): 4; Control of weed species, LOLPE (damage score) (Lolium perenne (LOLPE) [4]; Table 5): 4; Control of weed species, ORYSA (damage score) (Oryza sativa (ORYSA) [15]): 1; Control of weed species, TRZAW (damage score) [16]: 3; Control of weed species, ALOMY (damage score) [17]: 3; Control of weed species, AVEFA (damage score) (Avena fatua (AVEFA) [18]): 5; Control of weed species, ECHCG (damage score) ([9]; Table 7): 5; Control of weed species, LOLPE (damage score) (Lolium perenne (LOLPE) [10]; Table 7): 4; Control of weed species, ORYSA (damage score) (Oryza sativa (ORYSA) [19]): 0; Control of weed species, TRZAW (damage score) [20]: 4 |
